Experimental data reported in patent US20140107176A1, “METHOD OF MODULATING A PROSTATE CANCER CELL” (Agency for Science, Technology and Research, priority 2012, published 2014).

Experiments:
Type in all cases: cell-based, human
[1] = tested on: VCaP cells; assay: Time course expression analysis of AR and ERG mRNA and protein in VCaP cells after DHT stimulation; settings: 10 nM DHT
Description: (§1) FIG. 1. Androgen stimulates distinct expression and chromatin binding profiles for AR and ERG in prostate cancer cells. Time course expression analysis of AR and ERG (A) mRNA and (B) protein levels in VCaP cells after stimulation with 10 nM DHT at various time points. Error bars represent S.E.M of at least 3 independent repeats. (C) Androgen stimulates AR and ERG binding to chromatin. Hormone depleted VCaP cells were treated with 100 nM DHT for 0, 2, or 18 hrs. Cells were cross-linked with formaldehyde and chromatin was immunoprecipitated with antibodies against AR or ERG. Immunoprecipitated DNA was quantified with qPCR for specific binding sites and a randomly selected genomic location as control (ctrl) region. Error bars represent S.E.M of at least 3 independent experiments.
The human prostate cancer cell line, VCaP (American Type Culture Collection), was maintained in DMEM supplemented with 10% fetal bovine serum (FBS), sodium pyruvate, sodium bicarbonate, and penicillin/streptomycin at 37° C. under 5% CO2. Unless otherwise stated, for experiments requiring DHT (Tokyo Chemical Industry) treatment, VCaP cells were grown for 24 hours prior to stimulation in phenol red free DMEM supplemented with 10% charcoal-dextran stripped fetal bovine serum (CDFBS), sodium pyruvate, sodium bicarbonate, and penicillin/streptomycin.
Cells were harvested and total RNA was collected in TRI-reagent (Sigma) and purified with PureLink™ RNA Mini Kit (Invitrogen). Reverse transcription of RNA to cDNA was carried out using M-MLV reverse transcriptase (Promega). RNA expression levels were measured using quantitative PCR and normalized to GAPDH. The primers for cDNA quantification can be found in FIG. 9.
The antibodies used for western blot analysis include anti-AR (sc-816), anti ERG (sc-354), anti-Vinculin (sc-25336) from Santa Cruz, anti-AR (AR441) from Labvision, anti-HDAC1 (#05-100), anti-HDAC2 (#05-814) from Millipore, anti-HDAC3 (#3949) and anti-EZH2 (#3147) from Cell Signaling Technology.

[2] = tested on: VCaP cells; assay: HDAC1, HDAC2, HDAC3 and EZH2 ChIP-qPCR in VCaP cells before and after DHT treatment; settings: 100 nM DHT, 2 hrs
Description: FIG. 4. HDACs and EZH2 are recruited to AR binding sites. […] (B) Androgen-depleted VCaP cells were treated with either EtOH or 100 nM DHT for 2 hrs. The cells were then double crosslinked with DSG followed by formaldehyde. […] Error bars represent S.E.M of at least 3 independent experiments.
(§2) ChIP assay was performed as described previously (47). Briefly, VCaP cells were fixed with 1% formaldehyde (Sigma-Aldrich) for 10 minutes prior to harvesting. Next, the cells were resuspended in SDS lysis buffer containing protease inhibitors. The lysed cells were then sonicated shearing the chromatin into 500-1000 base pairs in length. After pre-clearing with rabbit IgG (Santa Cruz Biotechnology) for 2 hours, the chromatin was immunoprecipitation overnight with the corresponding antibodies and Sepharose beads A (Zymed). After washing the beads, the captured DNA was eluted and de-crosslinked at 65° C. overnight prior to purification with QIAquick spin PCR purification kit (Qiagen). Real-time quantitative Polymerase Chain Reaction (qPCR) was carried out using the KAPA SYBR FAST qPCR kit (Kapa Biosystems).
All ChIP-qPCR primer sequences can be found in FIG. 8. […] Specifically, cells were first fixed with 2 mM DSG (Pierce) for 45 minutes prior to formaldehyde fixation. […]

[3] = tested on: VCaP cells; assay: AR and ERG ChIP-qPCR in VCaP cells after DHT stimulation; settings: 100 nM DHT
Description: as §1, §2
All ChIP-qPCR primer sequences can be found in FIG. 8. […] Specifically, cells were first fixed with 2 mM DSG (Pierce) for 45 minutes prior to formaldehyde fixation. Antibodies that were used for ChIP analysis include anti-AR (sc-815x), anti-ERG (sc-353), anti-HDAC3 (sc-11417) from Santa Cruz Biotechnology, anti-HDAC1 (ab7028-50), anti-HDAC2 (ab7029-50) from Abcam, and anti-EZH2 (39933) from Active Motif.

[4] = tested on: EZH2; assay: Transcript levels of PSA and FKBP5 in VCaP cells after blocking EZH2 with DZNep (RT-qPCR); settings: 3 μM DZNep, 24 or 48 hrs
Description: (§3) FIG. 6. Co-recruitment of ERG, HDACs, and EZH2 to ARBS attenuates AR-dependent transcription. […] (C) VCaP cells grown in full serum (top) or depleted with hormones and treated with 10 nM DHT (bottom) were subjected to varying concentrations of TSA for 24 hours. Total RNA from the treated cells were then harvested and converted to cDNA before quantifying for gene expression levels by qPCR. GAPDH was used as an internal normalization control. Error bars represent S.E.M of at least 3 independent experiments. (D) VCaP cells grown in full serum (top) or depleted with hormone and treated with 10 nM DHT to 8 hours (bottom) were subjected to 3 μM DZNep treatment for 24 (top) or 48 (bottom) hrs. Total RNA was extracted and processed as described in FIG. 6C. Error bars represent S.E.M of at least 3 independent experiments.
(§4) The human prostate cancer cell line, VCaP (American Type Culture Collection), was maintained in DMEM supplemented with 10% fetal bovine serum (FBS), sodium pyruvate, sodium bicarbonate, and penicillin/streptomycin at 37° C. under 5% CO2. […]
(§5) Cells were harvested and total RNA was collected in TRI-reagent (Sigma) and purified with PureLink™ RNA Mini Kit (Invitrogen). […] RNA expression levels were measured using quantitative PCR and normalized to GAPDH. The primers for cDNA quantification can be found in FIG. 9. […]

[5] = tested on: HDACs; assay: Transcript levels of PSA and FKBP5 in VCaP cells after blocking HDACs with TSA (RT-qPCR); settings: 24 hours
Description: as §3, §4, §5

[6] = tested on: VCaP cells; assay: Flow cytometry of siRNA transfected VCaP cells (subG1 cell death, BrdU proliferation); settings: silencing of VCL
Description: (§6) FIG. 7. ERG, HDACs, and EZH2 promote cell invasiveness and inhibit epithelial differentiation by antagonizing AR-dependent transcription of cell adhesion molecules. […] Oncomine Molecular Concept Map analysis was performed to compare ERG-associated (5 kb from TSS) androgen induced genes (>2 fold) that were identified in our study against clinical prostate cancer gene signatures available in the Oncomine database. The criteria for significant associations between node is defined as OD>=2; p-value <le-4. (B) Boxplot showing the relative mRNA expression of VCL in clinical prostate samples from the Yu et al (49) study, which has been deposited in the Oncomine database. […] (G) The effect of AR and ERG silencing on VCL gene expression was analyzed as described in FIG. 3D-E. Error bars represent S.E.M of at least 3 independent experiments. (H) The effect of TSA on the androgen-dependent gene regulation of VCL was analyzed as described in FIG. 6C. […] (I) The effect of DZNep on the androgen-dependent gene regulation of VCL was analyzed as described in FIG. 6D. […] The number of cells per high power field (HPF) that passed through the transwell was counted. […] (K) The effect of VCL suppression on cancer cell survival was assessed by flow cytometry. siRNA transfected cells were fixed prior staining with propidium iodide for flow analysis. […]

[7] = tested on: VCaP cells; assay: Matrigel invasion assay with siRNA-treated VCaP cells; settings: silencing of VCL, 48 hrs
Description: as §6

With `C[C@]12CCC(=O)C[C@@H]1CC[C@@H]1[C@@H]2CC[C@]2(C)[C@@H](O)CC[C@@H]12` [DHT] the “mRNA and protein levels of ERG” value [1] was “up-regulated”, the “time of peak ERG RNA level” value [1] was 6 h and the “time of peak ERG protein level” value [1] was 12 h. For the same compound, the AR protein level ([1]; across time) was “remained relatively constant”, the “level of AR mRNA” value ([1]; across time) was “repressed” and the “recruitment of HDAC1, HDAC2, HDAC3 and EZH2 to AR and ERG co-localized binding sites” value [2] was “in most cases enhanced”. For the same compound, the “AR binding to the enhancer AR binding site (ARBS) of PSA” value ([3]; 2 hrs) was “recruited strongly”, the “ERG recruitment to the ARBS of PSA and the ERGBS associated with PLA1A” value ([3]; 2 hrs) was “recruited” and the “AR binding to the enhancer AR binding site (ARBS) of PSA” value ([3]; 18 hrs) was “reduced significantly”. For the same compound, the “ERG recruitment to the ARBS of PSA and the ERGBS associated with PLA1A” value ([3]; 18 hrs) was “further enhanced”.

In the case of `Nc1nccc2c1ncn2[C@@H]1C=C(CO)[C@@H](O)[C@H]1O` [DZNep, 3-deazaneplanocin A], the “expression of PSA and FKBP5” value [4] is reported as “enhanced”.

In the case of `CC(/C=C/C(=O)NO)=C\[C@@H](C)C(=O)c1ccc(N(C)C)cc1` [TSA, Trichostatin A], the “PSA and FKBP5 transcript levels” value ([5]; high concentrations of TSA) is reported as “repressive” and the “PSA and FKBP5 transcript levels” value ([5]; low concentrations of TSA) is reported as “enhanced”.

In the case of “siVCL: siRNA against VCL synthesized from 1stBase, rCrUrGrGrCrUrUrGrCrArGrArUrCrCrArArArUrUrU [SEQ ID NO.: 5] (CUGGCUUGCAGAUCCAAAUUU; RNA, backbone not given here)”, the “cell death (subG1 phase)” value [6] is reported as “not due to differences”, the “cell proliferation (S phase, BrdU)” value [6] is reported as “not due to differences” and the “invasiveness of VCaP cells” value [7] is reported as “increased”.
